Measured values from PubChem BioAssay (NCI).
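Each compound was tested at five concentrations against cells in 96-well plates for 48 hours. At the GI50, growth is halved. TGI is the concentration that stops growth completely.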

Assays:
Assay in all cases: NCI tumour cell line growth inhibition, 48 h
OVCAR-8 ovarian = system: OVCAR-8 ovarian
MDA-MB-435 = system: MDA-MB-435
KM12 colon = system: KM12 colon
SR leukemia = system: SR leukemia
NCI-H522 lung = system: NCI-H522 lung
SF-295 CNS = system: SF-295 CNS
MCF7 breast = system: MCF7 breast
NCI-H23 lung = system: NCI-H23 lung
BT-549 breast = system: BT-549 breast
A549 NSCLC = system: A549 NSCLC
CAKI-1 renal = system: CAKI-1 renal
TK-10 renal = system: TK-10 renal
SNB-19 CNS = system: SNB-19 CNS
UO-31 renal = system: UO-31 renal
ACHN renal = system: ACHN renal
K-562 leukemia = system: K-562 leukemia
MDA-MB-231 breast = system: MDA-MB-231 breast
NCI/ADR-RES ovarian = system: NCI/ADR-RES ovarian
OVCAR-4 ovarian = system: OVCAR-4 ovarian
HOP-92 NSCLC = system: HOP-92 NSCLC
UACC-62 melanoma = system: UACC-62 melanoma
NCI-H460 lung = system: NCI-H460 lung
OVCAR-3 ovarian = system: OVCAR-3 ovarian
RXF 393 renal = system: RXF 393 renal
SW-620 colon = system: SW-620 colon
RPMI-8226 leukemia = system: RPMI-8226 leukemia
HCT-116 colon = system: HCT-116 colon
SF-268 CNS = system: SF-268 CNS
SK-MEL-28 melanoma = system: SK-MEL-28 melanoma
786-0 renal = system: 786-0 renal
HOP-62 NSCLC = system: HOP-62 NSCLC
COLO 205 colon = system: COLO 205 colon
MOLT-4 leukemia = system: MOLT-4 leukemia
HL-60(TB) leukemia = system: HL-60(TB) leukemia
MALME-3M melanoma = system: MALME-3M melanoma
HCC-2998 colon = system: HCC-2998 colon
NCI-H226 lung = system: NCI-H226 lung
SF-539 CNS = system: SF-539 CNS
T-47D breast = system: T-47D breast
OVCAR-5 ovarian = system: OVCAR-5 ovarian
U251 CNS = system: U251 CNS
SN12C renal = system: SN12C renal
SNB-75 CNS = system: SNB-75 CNS
CCRF-CEM leukemia = system: CCRF-CEM leukemia
UACC-257 melanoma = system: UACC-257 melanoma
A498 renal = system: A498 renal
IGROV1 ovarian = system: IGROV1 ovarian
LOX IMVI melanoma = system: LOX IMVI melanoma
PC-3 prostate = system: PC-3 prostate
DU-145 prostate = system: DU-145 prostate
M14 melanoma = system: M14 melanoma
SK-OV-3 ovarian = system: SK-OV-3 ovarian
HS 578T breast = system: HS 578T breast
SK-MEL-5 melanoma = system: SK-MEL-5 melanoma
HCT-15 colon = system: HCT-15 colon
SK-MEL-2 melanoma = system: SK-MEL-2 melanoma
HT29 colon = system: HT29 colon

Question: What does the source list for `CC(=O)c1nc2ccccc2n1CCN1CCN(C)CC1`?
Answer: GI50 (OVCAR-8 ovarian): 3.76 µM; TGI (OVCAR-8 ovarian): > 100 µM; GI50 (MDA-MB-435): 0.373 µM; TGI (MDA-MB-435): 1.69 µM; GI50 (KM12 colon): 3.06 µM; TGI (KM12 colon): > 100 µM; GI50 (SR leukemia): 1.32 µM; TGI (SR leukemia): > 100 µM; GI50 (NCI-H522 lung): 1.8 µM; TGI (NCI-H522 lung): 6.11 µM; GI50 (SF-295 CNS): 2.12 µM; TGI (SF-295 CNS): 15.4 µM; GI50 (MCF7 breast): 1.16 µM; TGI (MCF7 breast): > 100 µM; GI50 (NCI-H23 lung): 6.01 µM; TGI (NCI-H23 lung): > 100 µM; GI50 (BT-549 breast): 6.21 µM; TGI (BT-549 breast): > 100 µM; GI50 (A549 NSCLC): 2.63 µM; TGI (A549 NSCLC): > 100 µM; GI50 (CAKI-1 renal): 34.1 µM; TGI (CAKI-1 renal): > 100 µM; GI50 (TK-10 renal): 11.5 µM; TGI (TK-10 renal): 84.3 µM; GI50 (SNB-19 CNS): 17.3 µM; TGI (SNB-19 CNS): > 100 µM; GI50 (UO-31 renal): 9.35 µM; TGI (UO-31 renal): > 100 µM; GI50 (ACHN renal): 23.4 µM; TGI (ACHN renal): > 100 µM; GI50 (K-562 leukemia): 3.95 µM; TGI (K-562 leukemia): > 100 µM; GI50 (MDA-MB-231 breast): 2.98 µM; TGI (MDA-MB-231 breast): > 95.8 µM; GI50 (NCI/ADR-RES ovarian): 61.1 µM; TGI (NCI/ADR-RES ovarian): > 100 µM; GI50 (OVCAR-4 ovarian): 15.7 µM; TGI (OVCAR-4 ovarian): > 100 µM; GI50 (HOP-92 NSCLC): 0.416 µM; GI50 (UACC-62 melanoma): 4.11 µM; TGI (UACC-62 melanoma): > 100 µM; GI50 (NCI-H460 lung): 2.3 µM; TGI (NCI-H460 lung): > 100 µM; GI50 (OVCAR-3 ovarian): 2.6 µM; TGI (OVCAR-3 ovarian): > 26 µM; GI50 (RXF 393 renal): 1.59 µM; TGI (RXF 393 renal): 18.6 µM; GI50 (SW-620 colon): 2.8 µM; TGI (SW-620 colon): > 100 µM; GI50 (RPMI-8226 leukemia): 1.9 µM; TGI (RPMI-8226 leukemia): > 100 µM; GI50 (HCT-116 colon): 1.2 µM; TGI (HCT-116 colon): > 100 µM; GI50 (SF-268 CNS): 4.63 µM; TGI (SF-268 CNS): > 100 µM; GI50 (SK-MEL-28 melanoma): 7.15 µM; TGI (SK-MEL-28 melanoma): > 100 µM; GI50 (786-0 renal): 17.6 µM; TGI (786-0 renal): > 100 µM; GI50 (HOP-62 NSCLC): 3.57 µM; TGI (HOP-62 NSCLC): > 100 µM; GI50 (COLO 205 colon): 1.89 µM; TGI (COLO 205 colon): 6.39 µM; GI50 (MOLT-4 leukemia): 8.2 µM; TGI (MOLT-4 leukemia): > 100 µM; GI50 (HL-60(TB) leukemia): 2.62 µM; TGI (HL-60(TB) leukemia): > 26.2 µM; GI50 (MALME-3M melanoma): 2.38 µM; TGI (MALME-3M melanoma): > 100 µM; GI50 (HCC-2998 colon): 3.63 µM; TGI (HCC-2998 colon): 26.9 µM; GI50 (NCI-H226 lung): 31.5 µM; TGI (NCI-H226 lung): > 100 µM; GI50 (SF-539 CNS): 2.28 µM; TGI (SF-539 CNS): > 50.4 µM; GI50 (T-47D breast): 2.97 µM; TGI (T-47D breast): > 100 µM; GI50 (OVCAR-5 ovarian): 3.5 µM; TGI (OVCAR-5 ovarian): > 100 µM; GI50 (U251 CNS): 3.82 µM; TGI (U251 CNS): > 100 µM; GI50 (SN12C renal): 4.21 µM; TGI (SN12C renal): > 100 µM; GI50 (SNB-75 CNS): 0.0668 µM; TGI (SNB-75 CNS): 1.57 µM; GI50 (CCRF-CEM leukemia): 3.29 µM; TGI (CCRF-CEM leukemia): > 100 µM; GI50 (UACC-257 melanoma): 5.47 µM; TGI (UACC-257 melanoma): > 100 µM; GI50 (A498 renal): 3.46 µM; TGI (A498 renal): > 52.7 µM; GI50 (IGROV1 ovarian): 4.83 µM; TGI (IGROV1 ovarian): > 100 µM; GI50 (LOX IMVI melanoma): 2.6 µM; TGI (LOX IMVI melanoma): > 100 µM; GI50 (PC-3 prostate): 2.41 µM; TGI (PC-3 prostate): > 100 µM; GI50 (DU-145 prostate): 2.79 µM; TGI (DU-145 prostate): 12.3 µM; GI50 (M14 melanoma): 2.66 µM; TGI (M14 melanoma): > 41.6 µM; GI50 (SK-OV-3 ovarian): 3.61 µM; TGI (SK-OV-3 ovarian): 59.5 µM; GI50 (HS 578T breast): 2.15 µM; TGI (HS 578T breast): 25.9 µM; GI50 (SK-MEL-5 melanoma): 3.13 µM; TGI (SK-MEL-5 melanoma): > 100 µM; GI50 (HCT-15 colon): 25 µM; TGI (HCT-15 colon): > 100 µM; GI50 (SK-MEL-2 melanoma): 3.28 µM; TGI (SK-MEL-2 melanoma): 47.6 µM; GI50 (HT29 colon): 0.639 µM; TGI (HT29 colon): 10.4 µM
